Source: ChEMBL document CHEMBL3885881, “DrugMatrix”

Species: Rattus norvegicus
Assay: DrugMatrix - Regimen: Daily Repeat
Type: toxicity, organism-based, Sprague-Dawley
Parameters: regimen Daily Repeat, gender Male, age 6-8 weeks
Conditions: in vivo, po, route oral GAVAGE, vehicle .5 % CMC; for ABSOLUTE BASOPHIL / ABSOLUTE EOSINOPHIL / ABSOLUTE LYMPHOCYTE / ABSOLUTE MONOCYTE / ABSOLUTE SEGMENTED NEUTROPHIL / BASOPHIL / EOSINOPHIL / ERYTHROCYTE COUNT / HEMATOCRIT / HEMOGLOBIN / LEUKOCYTE COUNT / LYMPHOCYTE / MEAN CORPUSCULAR HEMOGLOBIN / MEAN CORPUSCULAR HEMOGLOBIN CONCENTRATION / MEAN CORPUSCULAR VOLUME / MONOCYTE / NEUTROPHIL / NUCLEATED RED BLOOD CELLS / PLATELET COUNT: tissue Blood; for ALANINE AMINOTRANSFERASE / ALBUMIN / ALKALINE PHOSPHATASE / ASPARTATE AMINOTRANSFERASE / BLOOD UREA NITROGEN / CARBON DIOXIDE / CHLORIDE / CHOLESTEROL / CREATINE PHOSPHOKINASE / CREATININE / GLUCOSE / LACTATE DEHYDROGENASE / LIPASE / PHOSPHORUS / POTASSIUM / SODIUM / TOTAL BILIRUBIN / TOTAL PROTEIN / URIC ACID: tissue Plasma
[1] = 100 mg/kg, 120 h, dose level Low, time 5 day
[2] = 2500 mg/kg, 72 h, dose level High, time 3 day
[3] = 2500 mg/kg, 120 h, dose level High, time 5 day

Structure (SMILES): COC1=C(OC)C(=O)C(CCCCCCCCCCO)=C(C)C1=O [IDEBENONE]
- ABSOLUTE BASOPHIL [1]: 0 CELLS/uL
- ABSOLUTE EOSINOPHIL [1]: 0 CELLS/uL
- ABSOLUTE LYMPHOCYTE [1]: 14055 CELLS/uL
- ABSOLUTE MONOCYTE [1]: 144.33 CELLS/uL
- ABSOLUTE SEGMENTED NEUTROPHIL [1]: 1000.67 CELLS/uL
- BASOPHIL [1]: 0%
- EOSINOPHIL [1]: 0%
- ERYTHROCYTE COUNT [1]: 5.62 x10E6/uL
- HEMATOCRIT [1]: 35.7%
- HEMOGLOBIN [1]: 14.47 G/DL
- LEUKOCYTE COUNT [1]: 15.2 x10E3/uL
- LYMPHOCYTE [1]: 92.33%
- MEAN CORPUSCULAR HEMOGLOBIN [1]: 25.8 pg
- MEAN CORPUSCULAR HEMOGLOBIN CONCENTRATION [1]: 40.57 G/DL
- MEAN CORPUSCULAR VOLUME [1]: 63.63 fL
- MONOCYTE [1]: 1%
- NEUTROPHIL [1]: 6.67%
- NUCLEATED RED BLOOD CELLS [1]: 0.33 /100WBC
- PLATELET COUNT [1]: 1018.67 x10E3/uL
- ALANINE AMINOTRANSFERASE [1]: 63.67 u/L
- ALBUMIN [1]: 4.47 G/DL
- ALKALINE PHOSPHATASE [1]: 410 u/L
- ASPARTATE AMINOTRANSFERASE [1]: 93 u/L
- BLOOD UREA NITROGEN [1]: 16 mg/dL
- CARBON DIOXIDE [1]: 32.33 mmol/L
- CHLORIDE [1]: 102.67 MEQ/L
- CHOLESTEROL [1]: 71.67 mg/dL
- CREATINE PHOSPHOKINASE [1]: 369.33 u/L
- CREATININE [1]: 0.13 mg/dL
- GLUCOSE [1]: 152.33 mg/dL
- LACTATE DEHYDROGENASE [1]: 136 u/L
- LIPASE [1]: 10.33 u/L
- PHOSPHORUS [1]: 11.63 mg/dL
- POTASSIUM [1]: 6.29 MEQ/L
- SODIUM [1]: 145.4 MEQ/L
- TOTAL BILIRUBIN [1]: 0.13 mg/dL
- TOTAL PROTEIN [1]: 6.13 G/DL
- URIC ACID [1]: 1.03 mg/dL
- ABSOLUTE BASOPHIL [2]: 0 CELLS/uL
- ABSOLUTE EOSINOPHIL [2]: 0 CELLS/uL
- ABSOLUTE LYMPHOCYTE [2]: 12762.67 CELLS/uL
- ABSOLUTE MONOCYTE [2]: 85.33 CELLS/uL
- ABSOLUTE SEGMENTED NEUTROPHIL [2]: 1385.33 CELLS/uL
- BASOPHIL [2]: 0%
- EOSINOPHIL [2]: 0%
- ERYTHROCYTE COUNT [2]: 5.73 x10E6/uL
- HEMATOCRIT [2]: 36.83%
- HEMOGLOBIN [2]: 14 G/DL
- LEUKOCYTE COUNT [2]: 14.23 x10E3/uL
- LYMPHOCYTE [2]: 89.33%
- MEAN CORPUSCULAR HEMOGLOBIN [2]: 24.43 pg
- MEAN CORPUSCULAR HEMOGLOBIN CONCENTRATION [2]: 38 G/DL
- MEAN CORPUSCULAR VOLUME [2]: 64.3 fL
- MONOCYTE [2]: 0.67%
- NEUTROPHIL [2]: 10%
- NUCLEATED RED BLOOD CELLS [2]: 0.33 /100WBC
- PLATELET COUNT [2]: 1207.33 x10E3/uL
- ALANINE AMINOTRANSFERASE [2]: 63.67 u/L
- ALBUMIN [2]: 4.23 G/DL
- ALKALINE PHOSPHATASE [2]: 312.33 u/L
- ASPARTATE AMINOTRANSFERASE [2]: 80.67 u/L
- BLOOD UREA NITROGEN [2]: 13.67 mg/dL
- CARBON DIOXIDE [2]: 32.33 mmol/L
- CHLORIDE [2]: 103.67 MEQ/L
- CHOLESTEROL [2]: 71.33 mg/dL
- CREATINE PHOSPHOKINASE [2]: 242.67 u/L
- CREATININE [2]: 0.15 mg/dL
- GLUCOSE [2]: 157.67 mg/dL
- LACTATE DEHYDROGENASE [2]: 80.67 u/L
- LIPASE [2]: 11 u/L
- PHOSPHORUS [2]: 10.1 mg/dL
- POTASSIUM [2]: 6.3 MEQ/L
- SODIUM [2]: 144.83 MEQ/L
- TOTAL BILIRUBIN [2]: 0.17 mg/dL
- TOTAL PROTEIN [2]: 5.33 G/DL
- URIC ACID [2]: 1.27 mg/dL
- ABSOLUTE BASOPHIL [3]: 0 CELLS/uL
- ABSOLUTE EOSINOPHIL [3]: 79.33 CELLS/uL
- ABSOLUTE LYMPHOCYTE [3]: 11851 CELLS/uL
- ABSOLUTE MONOCYTE [3]: 40.67 CELLS/uL
- ABSOLUTE SEGMENTED NEUTROPHIL [3]: 1262.33 CELLS/uL
- BASOPHIL [3]: 0%
- EOSINOPHIL [3]: 0.67%
- ERYTHROCYTE COUNT [3]: 5.54 x10E6/uL
- HEMATOCRIT [3]: 33.87%
- HEMOGLOBIN [3]: 13.77 G/DL
- LEUKOCYTE COUNT [3]: 13.23 x10E3/uL
- LYMPHOCYTE [3]: 89.33%
- MEAN CORPUSCULAR HEMOGLOBIN [3]: 24.87 pg
- MEAN CORPUSCULAR HEMOGLOBIN CONCENTRATION [3]: 40.67 G/DL
- MEAN CORPUSCULAR VOLUME [3]: 61.17 fL
- MONOCYTE [3]: 0.33%
- NEUTROPHIL [3]: 9.67%
- NUCLEATED RED BLOOD CELLS [3]: 0 /100WBC
- PLATELET COUNT [3]: 1402 x10E3/uL
- ALANINE AMINOTRANSFERASE [3]: 63 u/L
- ALBUMIN [3]: 4.47 G/DL
- ALKALINE PHOSPHATASE [3]: 280.33 u/L
- ASPARTATE AMINOTRANSFERASE [3]: 108 u/L
- BLOOD UREA NITROGEN [3]: 18.33 mg/dL
- CARBON DIOXIDE [3]: 30 mmol/L
- CHLORIDE [3]: 101.33 MEQ/L
- CHOLESTEROL [3]: 63.33 mg/dL
- CREATINE PHOSPHOKINASE [3]: 512 u/L
- CREATININE [3]: 0.19 mg/dL
- GLUCOSE [3]: 146.67 mg/dL
- LACTATE DEHYDROGENASE [3]: 149.33 u/L
- LIPASE [3]: 8.67 u/L
- PHOSPHORUS [3]: 9.97 mg/dL
- POTASSIUM [3]: 6.03 MEQ/L
- SODIUM [3]: 145.03 MEQ/L
- TOTAL BILIRUBIN [3]: 0.23 mg/dL
- TOTAL PROTEIN [3]: 6.1 G/DL
- URIC ACID [3]: 0.9 mg/dL
